Source: PubChem BioAssay (NCI)
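Five concentrations, 48 hours, 96-well plates. GI50 marks 50% less growth. TGI marks complete inhibition of growth.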

Assays:
Assay in all cases: NCI tumour cell line growth inhibition, 48 h
SW-620 colon = tested on: SW-620 colon
HOP-92 NSCLC = tested on: HOP-92 NSCLC
HOP-62 NSCLC = tested on: HOP-62 NSCLC
OVCAR-3 ovarian = tested on: OVCAR-3 ovarian
UO-31 renal = tested on: UO-31 renal
MDA-MB-435 = tested on: MDA-MB-435
HS 578T breast = tested on: HS 578T breast
HCT-15 colon = tested on: HCT-15 colon
HCC-2998 colon = tested on: HCC-2998 colon
UACC-62 melanoma = tested on: UACC-62 melanoma
NCI-H522 lung = tested on: NCI-H522 lung
SF-268 CNS = tested on: SF-268 CNS
SK-OV-3 ovarian = tested on: SK-OV-3 ovarian
786-0 renal = tested on: 786-0 renal
SNB-75 CNS = tested on: SNB-75 CNS
CCRF-CEM leukemia = tested on: CCRF-CEM leukemia
BT-549 breast = tested on: BT-549 breast
M14 melanoma = tested on: M14 melanoma
EKVX NSCLC = tested on: EKVX NSCLC
MALME-3M melanoma = tested on: MALME-3M melanoma
A498 renal = tested on: A498 renal
A549 NSCLC = tested on: A549 NSCLC
COLO 205 colon = tested on: COLO 205 colon
SN12C renal = tested on: SN12C renal
NCI/ADR-RES ovarian = tested on: NCI/ADR-RES ovarian

C=C1C(=O)O[C@H]2[C@H]1CC/C(COC(=O)CCCCC(=O)OC/C1=C/CC[C@@]3(C)O[C@H]3[C@H]3OC(=O)C(=C)[C@@H]3CC1)=C\CC[C@@]1(C)O[C@@H]21
TGI (SW-620 colon): 2780 nM | GI50 (HOP-92 NSCLC): 1640 nM | TGI (HOP-92 NSCLC): 4.56 µM | GI50 (HOP-62 NSCLC): 3.15 µM | TGI (HOP-62 NSCLC): 9.61 µM | GI50 (OVCAR-3 ovarian): 840 nM | TGI (OVCAR-3 ovarian): 2140 nM | GI50 (UO-31 renal): 1410 nM | TGI (UO-31 renal): 4.57 µM | GI50 (MDA-MB-435): 2390 nM | TGI (MDA-MB-435): 8.04 µM | GI50 (HS 578T breast): 1970 nM | TGI (HS 578T breast): 8.46 µM | GI50 (HCT-15 colon): 1730 nM | TGI (HCT-15 colon): 4.2 µM | GI50 (HCC-2998 colon): 2090 nM | TGI (HCC-2998 colon): 3.94 µM | GI50 (UACC-62 melanoma): 1700 nM | TGI (UACC-62 melanoma): 4.04 µM | GI50 (NCI-H522 lung): 1760 nM | TGI (NCI-H522 lung): 3.57 µM | GI50 (SF-268 CNS): 3.02 µM | TGI (SF-268 CNS): > 100 µM | GI50 (SK-OV-3 ovarian): 33.4 µM | TGI (SK-OV-3 ovarian): > 100 µM | GI50 (786-0 renal): 1690 nM | TGI (786-0 renal): 3.86 µM | GI50 (SNB-75 CNS): 20 µM | TGI (SNB-75 CNS): > 100 µM | GI50 (CCRF-CEM leukemia): 429 nM | TGI (CCRF-CEM leukemia): 4.25 µM | GI50 (BT-549 breast): 1370 nM | TGI (BT-549 breast): 3.36 µM | GI50 (M14 melanoma): 1950 nM | TGI (M14 melanoma): 5.31 µM | GI50 (EKVX NSCLC): 2830 nM | TGI (EKVX NSCLC): > 100 µM | GI50 (MALME-3M melanoma): 2100 nM | TGI (MALME-3M melanoma): 5.66 µM | GI50 (A498 renal): 11 µM | TGI (A498 renal): > 100 µM | GI50 (A549 NSCLC): 58.2 µM | TGI (A549 NSCLC): > 100 µM | GI50 (COLO 205 colon): 1290 nM | TGI (COLO 205 colon): 3.31 µM | GI50 (SN12C renal): 2620 nM | TGI (SN12C renal): > 100 µM | GI50 (NCI/ADR-RES ovarian): 5.45 µM | TGI (NCI/ADR-RES ovarian): > 100 µM
